Data taken from patent US20240018146A1, “COMPOSITIONS AND METHODS OF USING THE SAME FOR TREATMENT OF NEURODEGENERATIVE AND MITOCHONDRIAL DISEASE” (MITOKININ, INC., priority 2020, published 2024).
Read-outs that look alike come from different tables or passages of the source.

Tests used:
Assay type in all cases: cell-based
HeLa MKYP cells [1] = test: Human mitophagy assay (HeLa mKeima assay, FACS)
Summary of the method: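 Mitophagy, read by FACS as the share of cells showing the lysosomal mtKeima emission shift, followed 6 h of 1 uM FCCP/oligomycin stimulation. Before that, HeLa MKYP cells spent 16 h with compound over a concentration range.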

HeLa MKYP cells [2] = test: Cell death measured by DAPI staining, with 1 μM FCCP/oligomycin or no toxin (no FO)
Summary of the method: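 Cell death was read by DAPI staining after 6–6.5 h compound exposure in HeLa MKYP cells, either with 1 μM FCCP/oligomycin or without toxin. H2O2 served as the cell-death control.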

[3] = Mitotoxicity / Mitotox safety margin (therapeutic window)
[4] = Homo sapiens, HeLa, read-out: Mitophagy induction EC50
[5] = read-out: Mitophagy induction EC50

Compound	EC50 (HeLa MKYP cells [1]; [4]) [nM]	Highest safe dose (cytotoxicity; no FO; safe means DAPI+ <20%) (HeLa MKYP cells [2]; no FO) [µM]	Max % death with 1 μM FO (HeLa MKYP cells [2]) [%]	Mito-Safety Index (highest safe dose/EC50) [3]	Highest safe dose (μM) (mitotox or cytotox) [3] [µM]	mitotoxicity ([3]; FIG. 5-7)	EC50 (HeLa MKYP cells [1]; HeLa mKeima assay, read-out: Mitophagy EC50 (HeLa mKeima assay)) [nM]	EC50 (HeLa MKYP cells [1]; [5]) [nM]	Max cell death at 25 μM compound, 1 uM FO (%) (HeLa MKYP cells [2]; 25 μM compound, 1 uM FO)	Cell death at 25 μM (no FO) (%) (HeLa MKYP cells [2]; 25 μM compound, no FO)	Mitotox safety margin (Therapeutic window) [3]
FC(F)(F)c1cc2c(N[C@H]3c4ccccc4OC[C@H]3C3CCCOC3)ncnc2[nH]1 (mixture of isomers) [EP-0041004]	980	25.0	71.7	25.46	25.0						
Oc1ccc2c(c1)CCC[C@H]2Nc1ncnc2[nH]c(C(F)(F)F)cc12 (single isomer, unassigned) [EP-0038508]						low mitotoxicity					
Fc1ccc2c(c1)CC[C@H](N1CCOCC1)[C@H]2Nc1ncnc2[nH]c(C3CC3)cc12 (single isomer, unassigned) [EP-0039746]		25.0	13.4	9.48	2.8		250	290	15.3	3.3	+++ (+++ = 20 < x < 30)
c1ccc2c(c1)CC[C@H](N1CCOCC1)[C@H]2Nc1ncnc2[nH]c(C3CC3)cc12 (single isomer, unassigned) [EP-0040108]	130	25.0	19.1	138.83	18.3						
c1ccc2c(c1)CC[C@@H](N1CCOCC1)[C@@H]2Nc1ncnc2[nH]c(C3CC3)cc12 (single isomer, unassigned) [EP-0040109]	24800	25.0	7.9	1.01	25.0						
Fc1ccc2c(c1)OC[C@H](N1C[C@H]3COC[C@H]3C1)[C@H]2Nc1ncnc2[nH]c(C3CC3)cc12 (single isomer, unassigned) [EP-0040328]		25.0	16.0	84.78	16.0			190			
c1ccc2c(c1)OC[C@@H](N1C[C@H]3COC[C@H]3C1)[C@@H]2Nc1ncnc2[nH]c(C3CC3)cc12 (single isomer, unassigned) [EP-0040392]	110	25.0	11.8	153.83	16.6						
C[C@@H]1CN([C@H]2CCc3ccccc3[C@@H]2Nc2ncnc3[nH]c(C(F)(F)F)cc23)CCO1 (single isomer, unassigned) [EP-0040491]	70	25.0	19.4	49.72	3.7						
C[C@@H]1CN([C@H]2CCc3ccccc3[C@@H]2Nc2ncnc3[nH]c(C(F)(F)F)cc23)C[C@H](C)O1 (single isomer, unassigned) [EP-0040493]	20	25.0	14.8	103.09	1.7						
C[C@@H]1CN([C@H]2CCc3ccccc3[C@@H]2Nc2ncnc3[nH]c(C4CC4)cc23)CCO1 (single isomer, unassigned) [EP-0040496]	20	25.0	15.6	82.87	1.3						
C[C@@H]1CN([C@H]2CCc3ccccc3[C@@H]2Nc2ncnc3[nH]c(C4CC4)cc23)C[C@H](C)O1 (single isomer, unassigned) [EP-0040498]	20	25.0	16.5	30.45	0.7						
Fc1cccc2c1CC[C@@H](N1C[C@H]3COC[C@H]3C1)[C@@H]2Nc1ncnc2[nH]c(C(F)(F)F)cc12 (single isomer, unassigned) [EP-0040506]	50	25.0	41.0	44.10	2.2						
C[C@H]1CN([C@H]2CCc3ccccc3[C@@H]2Nc2ncnc3[nH]c(C4CC4)cc23)CCO1 (single isomer, unassigned) [EP-0040511]	70	25.0	13.1	53.66	3.5						
Fc1cccc2c1CC[C@@H](N1C[C@H]3COC[C@H]3C1)[C@@H]2Nc1ncnc2[nH]c(C3CC3)cc12 (single isomer, unassigned) [EP-0040577]	20	25.0	28.6	86.01	1.3						
FC(F)(F)c1cc2c(N[C@H]3c4ccccc4CC[C@@H]3C3CCOCC3)ncnc2[nH]1 (single isomer, unassigned) [EP-0040580]	80	25.0	17.1	68.72	5.5						
c1ccc2c(c1)CC[C@H](C1CCOCC1)[C@H]2Nc1ncnc2[nH]c(C3CC3)cc12 (single isomer, unassigned) [EP-0040582]	80	25.0	17.7	68.01	5.1						
Fc1ccc2c(c1)OC[C@H](N1C[C@@H]3COC[C@H]3C1)[C@H]2Nc1ncnc2[nH]c(C3CC3)cc12 (single isomer, unassigned) [EP-0040644]		25.0	8.1	72.77	25.0			340			
